Assay results reported in publication PMC6291738, “Identification of novel HIV-1-derived HLA-E-binding peptides” (Immunology Letters, 2018).
Several values for one entry are separate records, joined by “and”; a condition that tells them apart may be missing. Equal values may be shown once. No end group written: not given here.

Tests used:
[1] = molecular target: T1, HLA-E*01:03 (Homo sapiens, UniProt P13747); assay: HLA-E/peptide cell-surface stabilization (binding) assay, RMA-S cells transfected with HLA-E*01:03; type: cell-based; set-up: RMA-S cells expressing HLA-E*01:01 and E*01:03 were generated by transfecting the genes into the RMA-S cell line; expressed in transfected cells; host or cells: murine TAP-deficient RMA-S cells; details: for Cell-Surface Stabilization Index E*01:03 ± SD: RMA-S cells with HLA-E*01:03 and human β2-microglobulin, overnight 26 °C, peptide 1 h 26 °C, 3 h 37 °C, peptide 100 μg/ml, Index = (Sample 37 °C – No peptide 37 °C)/(Sample 26 °C – No peptide 26 °C), mean ± SD n=3
Method: (§1) Binding of PM9 to both HLA-E*01:01 and –E*01:03 alleles was assessed using an HLA-E/peptide cell-surface stabilization assays. Thus, murine RMA-S cells deficient in transporter associated with antigen processing (TAP) were stably transfected with one of the two HLA-E alleles together with human β2-microglobuline. Then, stabilization of HLA-E/PM9 and HLA-E/VL9 complexes was compared in peptide-titration analyses using peptide concentrations ranging from 0.01 μg/ml to 100 μg/ml by growing transfected RMA-S cells overnight at 26 °C, pulsing them with peptide for 1 h and transferring them to 37 °C for 3 additional hours. Weak half-maximal effective concentrations (EC50) of over 100 μM were indicated for the interaction of PM9 with the two HLA-E*01:01 and E*01:03 molecules (Fig. 1A).

[2] = molecular target: T2, HLA-E*01:01 (Homo sapiens, UniProt P13747, G128R); assay: HLA-E/peptide cell-surface stabilization (binding) assay, RMA-S cells transfected with HLA-E*01:01; type: cell-based; set-up: RMA-S cells expressing HLA-E*01:01 and E*01:03 were generated by transfecting the genes into the RMA-S cell line; expressed in transfected cells; host or cells: murine TAP-deficient RMA-S cells; details: RMA-S cells with HLA-E*01:01 and human β2-microglobulin; overnight 26 °C, peptide 1 h 26 °C, 3 h 37 °C; peptide 100 μg/ml; Index = (Sample 37 °C – No peptide 37 °C)/(Sample 26 °C – No peptide 26 °C); flow cytometry
Method: as §1

[3] = molecular target: T1, HLA-E*01:03; details: summary of both assays
[4] = molecular target: T1, HLA-E*01:03; assay: Single-chain peptide-β2-microglobulin-MHC-E trimer stabilization assay, HEK 293T cells, HLA-E*01:03; type: cell-based; set-up: expressed in transfected cells; details: transiently transfected HEK 293T cells; for HLA-E*01:03 single-chain trimer surface stabilization: mAb 3D12, compared with VL9 and irrelevant peptide
Text: (§2) The chimeric genes coding for the single-chain peptide-β2-microblobuline-MHC-E trimers were constructed as described previously. Briefly, the DNA fragment coding the tested peptide was inserted downstream of the fragment coding for the signal sequence of HLA-E*01:01 followed by coding sequences for a flexible linker [G4S]4, β2-microglobulin and the desired heavy chain of MHC-E. […] to accommodate for the flexible linker. The assembled plasmids were then transfected into HEK 293 T cells maintained between 10% and 90% confluency at 37 °C, 5% CO2 in DMEM (Life Technologies) supplemented with 10% FBS (SeraLabs), and 50 units/ml Penicillin/50 μg/ml Streptomycin (Life Technologies). Transfections were carried out in 6-well plates using GeneJuice (Millipore) as per the manufacturer’s instructions.
To further confirm PM9-interaction with the MHC-E molecules, we employed an assay based on cell-surface stabilization of single-chain peptide-β2-microblobuline-MHC-E trimers. Briefly, a DNA fragment coding for the tested peptide, here PM9, was inserted downstream of an HLA-E leader peptide and was followed by flexible [G4S]4 linker, β2-microblobuline and Y84 A point-mutated MHC-E heavy chain, which accommodated the flexible linker (Fig. 1B left). […] From these experiments, we concluded that the PM9 peptide bound to HLA-E molecules, and stabilized and increased the HLA-E expression on the cell surface.
Fig. 2 Identification of HLA-E-binding peptides in a single-chain trimer stabilization assay. A single chain peptide-β2-microglobuline-MHC-E heavy chain trimer stabilization assay was employed to determine the candidate 9-mer peptide binding to HLA-E*01:03 (brown line) and compared to that induced by VL9 (yellow area) and irrelevant (pink area) peptide. Expression of trimer on transiently transfected into HEK 293T cells was assessed using a […] 3D12 mAb in flow cytometry. Please see gating strategy in Fig. S3.

[5] = system: CD8+ HC092 STCL cells; type: cell-based, human; details: PM9-pulsed LCL721.221 HLA-B*18:01 transfectant; volunteer 410
Method: Cryopreserved PBMCs were thawed and cultures set up at 1–3 × 10^6 cells/ml in culture medium containing 1.5 μg/ml 15-mer ‘parental’ peptide and 25 ng/ml IL-7 (R & D Systems). Cultures were supplemented with 100 IU/ml IL-2 (R&D Systems) on day 3, and IL-2 plus fresh culture medium on day 7. On day 10, the cells were washed three times with culture medium, re-suspended in 1 ml of medium and placed at 37 °C, 5% CO2 for 48 h to rest prior to the ICS assay.
LCL 721.221 cell lines expressing a single HLA allele were prepulsed with corresponding peptides, added to the STCLs in a 96-well plate at 37 °C for 2 h. […]
The first-generation candidate T-cell vaccine against HIV-1 employing conserved regions of the HIV-1 proteome was tested in HIV-1-negative adults in trial HIV−CORE 002 and induced robust HIV-1-specific T-cell responses. These responses were detected by pools of 15-mer peptides overlapping by 11 amino acids across the full length of the HIV-1-derived vaccine immunogen. […] In particular, HLA restriction was determined by expanding volunteer’s PBMC with stimulatory ‘parental’ peptide […] […]

[6] = system: CD8+ T cells of HIV-1-infected patients; assay: Search for PM9-specific HLA-E-restricted CD8+ T-cell responses in natural HIV-1 infection; type: cell-based, human; details: PBMC of 32 treatment-naïve patients chronically infected with HIV-1; barely detectable response
Text: Cryopreserved PBMCs from 32 treatment-naïve Japanese individuals chronically infected with HIV-1 subtype B were recruited from the National Center for Global Health and Medicine. All volunteers gave written informed consent before participation. The study was approved by the ethics committees of Kumamoto University and the National Center for Global Health and Medicine. Informed consent was obtained from all individuals according to the Declaration of Helsinki. Plasma and PBMCs were separated from whole blood. HLA types of the individuals were determined by standard sequence-based genotyping.
So far, we were unable to confirm existence of vaccine- or natural HIV-1 infection-elicited CD8^+ T lymphocytes recognizing HIV-1-derived peptides through their TCR and this is not for lack of trying. […] Since humans infected with M. tuberculosis have readily detectable CD8^+ T cells specific for HLA-E-presented M. tuberculosis peptides, perhaps search for such HLA-E-restricted HIV-1-specific CD8 T cells in dually HIV-1- and M. tuberculosis co-infected individuals might yield some interesting results.

[7] = molecular target: T2, HLA-E*01:01; assay: Single-chain peptide-β2-microglobulin-MHC-E trimer stabilization assay, HEK 293T cells, HLA-E*01:01; type: cell-based; set-up: expressed in transfected cells; details: transiently transfected HEK 293T cells; mAb 3D12
Text: as §2
(§3) To further confirm PM9-interaction with the MHC-E molecules, we employed an assay based on cell-surface stabilization of single-chain peptide-β2-microblobuline-MHC-E trimers. Briefly, a DNA fragment coding for the tested peptide, here PM9, was inserted downstream of an HLA-E leader peptide and was followed by flexible [G4S]4 linker, β2-microblobuline and Y84 A point-mutated MHC-E heavy chain, which accommodated the flexible linker (Fig. 1B left). […]

[8] = system: Mamu-E*02:04; assay: Single-chain peptide-β2-microglobulin-MHC-E trimer stabilization assay, HEK 293T cells, Mamu-E*02:04; type: cell-based, rhesus macaque (Macaca mulatta); details: transiently transfected HEK 293T cells; mAb 4D12
Text: as §2, §3

QMAVFIHNFKRKGGI [C352, tHIVconsvX 15-mer peptide […]]
Cell-Surface Stabilization Index E*01:03 ± SD [1]: 0.641 ± 0.051
Cell-Surface Stabilization Index E*01:01 [2]: 0.26

PQDLNTMLNTVGGHQ [C025, tHIVconsvX 15-mer peptide […]]
Cell-Surface Stabilization Index E*01:03 ± SD [1]: 0.431 ± 0.038
Cell-Surface Stabilization Index E*01:01 [2]: 0.32

PQDLNMMLNIVGGHQ [C026, tHIVconsvX 15-mer peptide […]]
Cell-Surface Stabilization Index E*01:03 ± SD [1]: 0.429 ± 0.037
Cell-Surface Stabilization Index E*01:01 [2]: 0.25

QMAVFIHNF [QF9]
HLA-E binder classification across the SCT assay and the LCL721.221-HLA-E*01:03 assay (MFI over 4000) [3]: positive stabilization signal in at least one of the two employed assays

VYYRDSRDPLWKGPA [C377, tHIVconsvX 15-mer peptide […]]
Cell-Surface Stabilization Index E*01:03 ± SD [1]: 0.353 ± 0.039
Cell-Surface Stabilization Index E*01:01 [2]: 0.17

PEIVIYQYM [PM9]
HLA-E*01:03 single-chain trimer MFI relative to VL9 MFI ([4]; highest increase of the three MHC-E molecules): approximately half of the VL9 MFI
HLA-E*01:03 single-chain trimer surface stabilization [4]: increased the mean fluorescent intensity (MFI) relative to a non-binding peptide
IFN-γ production by CD8+ HC092 STCL cells [5]: 28.3%
PM9-specific HLA-E-restricted CD8+ T-cell responders [6]: one possible responder out of 32 patients
HLA-E*01:01 single-chain trimer surface expression (MFI) relative to non-binding peptide [7]: increased the mean fluorescent intensity (MFI) relative to a non-binding peptide
Mamu-E*02:04 single-chain trimer surface expression (MFI) relative to non-binding peptide [8]: increased the mean fluorescent intensity (MFI) relative to a non-binding peptide
HLA-E binder classification across the SCT assay and the LCL721.221-HLA-E*01:03 assay (MFI over 4000) [3]: both the SCT assay and over 4000 MFI in the LCL721.221-HLA-E*01:03 assay
Cell-Surface Stabilization Index E*01:03/PM9 ([1]; PM9 positive control of the experimental day, RMA-S cells with HLA-E*01:03): 0.658 and 0.733 and 0.617 and 0.620

TVCVIWCIH [TH9, reference compound]
HLA-E*01:03 single-chain trimer surface stabilization [4]: non-binding
HLA-E*01:01 single-chain trimer surface expression (MFI) relative to non-binding peptide [7]: non-binding
Mamu-E*02:04 single-chain trimer surface expression (MFI) relative to non-binding peptide [8]: non-binding

VMAPRTLVL [VL9, reference compound]
Cell-Surface Stabilization Index E*01:03/VL9 ([1]; VL9 (VMAPRTLVL) positive control of the experimental day, RMA-S cells with HLA-E*01:03): 2.572 and 2.369 and 2.600 and 2.281

VYYRDSRDPIWKGPA [C376, tHIVconsvX 15-mer peptide […]]
Cell-Surface Stabilization Index E*01:03 ± SD [1]: 0.366 ± 0.044
Cell-Surface Stabilization Index E*01:01 [2]: 0.22

GHQAAMQMLKETINE [C032, tHIVconsvX 15-mer peptide […]]
Cell-Surface Stabilization Index E*01:03 ± SD [1]: 0.480 ± 0.057
Cell-Surface Stabilization Index E*01:01 [2]: 0.16

INEEAAEWDRLHPVH [C038, tHIVconsvX 15-mer peptide […]]
Cell-Surface Stabilization Index E*01:03 ± SD [1]: 0.389 ± 0.039
Cell-Surface Stabilization Index E*01:01 [2]: 0.20

QMAVLIHNFKRRGGI [C353, tHIVconsvX 15-mer peptide […]]
Cell-Surface Stabilization Index E*01:03 ± SD [1]: 0.632 ± 0.065
Cell-Surface Stabilization Index E*01:01 [2]: 0.17

TEEKIKALTEICKEM [C182, tHIVconsvX 15-mer peptide […]]
Cell-Surface Stabilization Index E*01:03 ± SD [1]: 0.463 ± 0.085
Cell-Surface Stabilization Index E*01:01 [2]: 0.33

YFSVPLDKDFRKYTA [C227, tHIVconsvX 15-mer peptide […]]
Cell-Surface Stabilization Index E*01:03 ± SD [1]: 0.618 ± 0.042
Cell-Surface Stabilization Index E*01:01 [2]: 0.21

SALSEGATPQDLNMM [C022, tHIVconsvX 15-mer peptide […]]
Cell-Surface Stabilization Index E*01:03 ± SD [1]: 0.382 ± 0.027
Cell-Surface Stabilization Index E*01:01 [2]: 0.14

NEEAAEWDR [NR9]
HLA-E binder classification across the SCT assay and the LCL721.221-HLA-E*01:03 assay (MFI over 4000) [3]: positive stabilization signal in at least one of the two employed assays

IVRMYSPTSILDIKQ
Cell-Surface Stabilization Index E*01:03 ± SD [1]: 0.518 ± 0.033
Cell-Surface Stabilization Index E*01:01 [2]: 0.03

YFSVPLDESFRKYTA [C226, tHIVconsvX 15-mer peptide […]]
Cell-Surface Stabilization Index E*01:03 ± SD [1]: 0.669 ± 0.010
Cell-Surface Stabilization Index E*01:01 [2]: −0.15

GHQAAMQMLKDTINE
Cell-Surface Stabilization Index E*01:03 ± SD [1]: 0.455 ± 0.033
Cell-Surface Stabilization Index E*01:01 [2]: 0.27

INEEAAEWDRVHPVH [C037, tHIVconsvX 15-mer peptide […]]
Cell-Surface Stabilization Index E*01:03 ± SD [1]: 0.419 ± 0.031
Cell-Surface Stabilization Index E*01:01 [2]: 0.30
